Test results taken from patent publication US5846720A, “Methods of determining chemicals that modulate expression of genes associated with cardiovascular disease” (Oncogene Science, Inc., priority 1996, dated 1998).
Like-named read-outs stand apart in the source and are kept apart here.

Legend:
[1] = tested on: G-CSF promoter; test: G-CSF promoter/luciferase reporter assay (high-throughput screen I), G21 cells; settings: for scored as positive in repeat assays (G-CSF): 48 independent luciferase assays, same day; for GCSF fold induction relative to solvent control: transcriptional activators
[2] = tested on: MMTV promoter; test: MMTV promoter/luciferase reporter assay (high-throughput screen I, control for specificity), M10 cells; assay type: cell-based, mouse; settings: for MMTV fold induction relative to solvent control: transcriptional activators, original high-throughput assay
Description: pMluci and pSV2Neo, an antibiotic resistance plasmid (84), were co-transfected into NIH/3T3 mouse fibroblast cells using the calcium phosphate precipitation method (85) with a commercially available kit (Pharmacia, Piscataway N.J.). Two days later, cells were transferred to media containing 0.4 mg/ml G418 and were grown for an additional 10-14 days. G418-resistant clones were isolated by standard methods. Once sufficient cell numbers were obtained, clones were analyzed based on several criteria: constitutive luciferase production, induction of luciferase expression by dexamethasone ([…], Sigma, St. Louis, Mo.), satisfactory attachment to microtiter plates used in the high-throughput screen (see section G) and acceptable standard deviation in multiple luciferase expression assays (see below for assay protocol). This analysis was carried out using the luciferase assay conditions described above. Of the clones which satisfied the above criteria for the high throughput screen, one clone, M10, was selected for use.

[3] = tested on: hGH promoter; test: hGH promoter/luciferase reporter assay (high-throughput screen I), 532 cells; assay type: cell-based, rat; settings: for hGH fold induction relative to solvent control: transcriptional activators
Source text: 6. a GC rat pituitary cell line, transfected with the growth hormone reporter plasmid, designated 532, deposited under ATCC Accession No. CRL 10663.

[4] = Table 2, 6 h incubation, 360 min
[5] = transcriptional inhibitors, Table 2, 6 h incubation

Row | Structure (SMILES) | GCSF fold induction relative to solvent control ([1]; Table 2, 6 h incubation) [fold] | hGH fold induction relative to solvent control ([3]; Table 2, 6 h incubation) [fold] | MMTV fold induction relative to solvent control ([2]; Table 2, 6 h incubation) [fold] | GCSF fold inhibition relative to solvent control [1, 5] [fold] | hGH fold inhibition relative to solvent control [3, 5] [fold] | MMTV fold inhibition relative to solvent control [2, 5] [fold] | further results
1 | CC(=O)n1ccnc1 [#58] |  |  |  |  |  |  | scored as positive in repeat assays (G-CSF) [1]: scored as positives in every single one of these assays
2 | CN(C)c1ccc2cc3ccc(N(C)C)cc3nc2c1 [#80] |  |  |  |  |  |  | activation of the G-CSF promoter (dose response) ([1]; G21 cells): specifically activated the G-CSF promoter; EC50 ([1]; read-out: ED50 (concentration of chemical resulting in 50% maximal stimulation), G-CSF reporter cell line G21, range over the three chemicals): 5 to 70 µM
3 | c1ccc(-c2cccc(-c3ccccn3)n2)nc1 [#453] |  |  |  |  |  |  | effect of replacing DMSO by methanol on MMTV activation ([2]; chemical dissolved in methanol): did not affect its ability to activate the MMTV promoter; MMTV fold induction relative to solvent control [2, 4]: 13.3 fold
4 | CC(=O)N(C)c1ccc(N)cc1 [#1374] |  |  |  |  |  |  | scored as positive in repeat assays (G-CSF) [1]: scored as positives in every single one of these assays
5 | O=NN(O)c1ccccc1 [#1783] |  |  |  |  |  |  | scored as positive in repeat assays (G-CSF) [1]: scored as positive only in half of the 48 repeat assays
6 | CC(=O)c1c(C)cc(NC(C)(C)C)nc1NC(C)(C)C [Chemical 40] | 5.62 | 0.62 | 0.27 |  |  |  | 
7 | CC(=O)c1ccc[nH]1 [Chemical 70] | 0.43 | 9.26 | 0.85 |  |  |  | 
8 | CN(C)c1ccc2cc3ccc(N(C)C)cc3nc2c1 [Chemical 80] | 5.87 | 0.66 | 0.83 |  |  |  | 
9 | CN(C)c1ccc(C(=N)c2ccc(N(C)C)cc2)cc1 [Chemical 183] |  |  |  | 0.72 | 4.00 | 0.70 | 
10 | O=C(c1ccccc1)c1ccncc1 [Chemical 209] |  |  |  | 6.66 | 1.08 | 0.81 | 
11 | CCOC(=O)N1C(=O)c2ccccc2C1=O [Chemical 237] | 4.77 | 0.06 | 0.62 |  |  |  | 
12 | Cc1c(C(=O)O)c(O)cc2c1C(=O)c1c(O)c([C@@H]3O[C@H](CO)[C@@H](O)[C@H](O)[C@H]3O)c(O)c(O)c1C2=O [Chemical 240] |  |  |  | 0.63 | 5.26 | 0.80 | 
13 | ClCCN1CCCCC1 [Chemical 254] | 4.09 | 0.90 | 0.98 |  |  |  | 
14 | NC(=O)N1c2ccccc2CCc2ccccc21 [Chemical 299] | 0.53 | 5.46 | 0.47 |  |  |  | 
15 | CCn1c(=O)[nH]c2ccccc21 [Chemical 322] | 0.60 | 11.18 | 1.12 |  |  |  | 
16 | O=c1c(O)c(-c2ccc(O)c(O)c2)oc2cc(O)ccc12 [Chemical 325] | 0.14 | 5.42 | 1.0 |  |  |  | 
17 | Nc1nc(N)nc(N)n1 [Chemical 364] | 3.67 | 1.18 | 1.07 |  |  |  | 
18 | O=c1c(O)c(-c2ccc(O)cc2O)oc2cc(O)cc(O)c12 [Chemical 371] |  |  |  | 11.11 | 0.41 | 0.89 | 
19 | O=C(O)c1ccc2c3c(ncnc13)-c1ccccc1C2=O [Chemical 378] | 4.12 | 0.26 | 0.59 |  |  |  | 
20 | CCN(CC)CCCC(C)Nc1c2ccc(Cl)cc2nc2ccc(OC)cc12 (stereo not drawn) [Chemical 423] | 2.39 | 0.56 | 0.64 |  |  |  | 
21 | O=c1ccc2[n+]([O-])c3ccc(O)cc3oc-2c1 [Chemical 427] | 3.14 | 0.43 | 0.71 |  |  |  | 

Row | Structure (SMILES) | GCSF fold induction relative to solvent control ([1]; Table 2, 6 h incubation) [fold] | hGH fold induction relative to solvent control ([3]; Table 2, 6 h incubation) [fold] | MMTV fold induction relative to solvent control ([2]; Table 2, 6 h incubation) [fold] | GCSF fold inhibition relative to solvent control [1, 5] [fold] | hGH fold inhibition relative to solvent control [3, 5] [fold] | MMTV fold inhibition relative to solvent control [2, 5] [fold] | further results
22 | Cc1cc(C)nc(NS(=O)(=O)c2ccc(N)cc2)n1 [Chemical 443] |  |  |  | 0.60 | 4.76 | 0.79 | 
23 | c1ccc(-c2cccc(-c3ccccn3)n2)nc1 [Chemical 453] | 0.79 | 0.58 |  |  |  |  | MMTV fold induction relative to solvent control [2, 4]: 13.30 fold
24 | c1ncncn1 [Chemical 473] | > 3 | 0.50 | 0.87 |  |  |  | 
25 | O=S(=O)(O)c1ccc2c(N=Nc3ccc(S(=O)(=O)O)c4ccccc34)c(O)c(S(=O)(=O)O)cc2c1 [Chemical 512] |  |  |  | 0.81 | 5.26 | 0.68 | 
26 | CC(C=O)=CC=CC(C)=CC=CC=C(C)C=CC=C(C)C=CC1=C(C)CCCC1(C)C [Chemical 519] | 1.15 | 0.68 | 2.76 |  |  |  | 
27 | O=P(O)(O)Oc1c[nH]c2ccc(Br)c(Cl)c12 [Chemical 541] |  |  |  | 0.90 | 6.25 | 0.86 | 
28 | CON(C)C(=O)Nc1ccc(Cl)cc1 [Chemical 552] | 0.81 | 5.31 | 0.86 |  |  |  | 
29 | CC1=CC(=C(c2cc(C)c(O)c(C(=O)O)c2)c2c(Cl)ccc(S(=O)(=O)O)c2Cl)C=C(C(=O)O)C1=O [Chemical 556] |  |  |  | 0.73 | 33.33 | 0.87 | 
30 | CC(=O)NCCCC[C@H](NC(C)=O)C(=O)O [Chemical 577] |  |  |  | 0.64 | 4.00 | 0.68 | 
31 | O=C(O[C@H](C(=O)O)[C@H](OC(=O)c1ccccc1)C(=O)O)c1ccccc1 [Chemical 578] |  |  |  | 0.65 | 4.00 | 0.91 | 
32 | COc1ccc(CC(=O)O)cc1OC [Chemical 629] | 0.85 | 1.05 | 2.48 |  |  |  | 
33 | O=C(O)CC1NC(=O)NC1=O (stereo not drawn) [Chemical 630] |  |  |  | 0.70 | 3.57 | 0.74 | 
34 | O=C(O)c1[nH]c(=O)[nH]c(=O)c1I [Chemical 633] | 1.02 | 0.86 | 2.46 |  |  |  | 
35 | Nc1c(O)c(S(=O)(=O)O)c(O)c2c1C(=O)c1ccccc1C2=O [Chemical 640] |  |  |  | 0.64 | 5.00 | 0.59 | 
36 | O=C(c1ccc(O)c(O)c1)c1c(O)cc(O)cc1O [Chemical 660] |  |  |  | 10.0 | 0.34 | 1.04 | 
37 | CN(C)c1ccc(C(=C2C=CC(=[N+](C)C)C=C2)c2ccc([N+](C)(C)C)cc2)cc1 [Chemical 670] | > 3 | 0.52 | 0.79 |  |  |  | 
38 | C1CCNCC1 [Chemical 759] |  |  |  |  | 5.88 | 0.95 | GCSF fold inhibition relative to solvent control [1]: 0.64
39 | C[C@]12C=CC(=O)C=C1CC[C@@H]1[C@@H]2[C@@H](O)C[C@@]2(C)[C@H]1CC[C@]2(O)C(=O)CO [Chemical 764] |  |  |  |  |  |  | hGH fold inhibition relative to solvent control [3]: 4.54; MMTV fold inhibition relative to solvent control [2]: 0.59
40 | CC(=O)OCC(=O)[C@@]1(O)CC[C@H]2[C@@H]3CCC4=CC(=O)C=C[C@]4(C)[C@H]3[C@@H](O)C[C@@]21C [Chemical 765] | 0.96 | 1.30 | 2.66 |  |  |  | 
41 | CCOc1ccc2nc3cc(N)ccc3c(N)c2c1 [Chemical 790] | 0.01 | 5.94 | 0.58 |  |  |  | 
42 | O=C1OC2(c3cc(I)c(O)c(I)c3Oc3c2cc(I)c(O)c3I)c2c(Cl)c(Cl)c(Cl)c(Cl)c21 [Chemical 792] | 0.94 | 5.31 | 1.21 |  |  |  | 
